Assay results as given in patent publication US10882871B2, “18/19F-labelled compounds which target the prostate specific membrane antigen” (BRITISH COLUMBIA CANCER AGENCY BRANCH, priority 2016, dated 2021).

Experiments:
[1] = test system: PSMA-expressing LNCAP cancer xenografts; test: Biodistribution and tumor-to-background contrast ratios of 18F-labeled tracers; format: in vivo, mouse (NODSCID 1L2RγKO male mice)
Procedure: LNCap cell line was obtained from ATCC (LNCaP clone FGC, CRL-1740). It was established from a metastatic site of left supraclavicular lymph node of human prostatic adenocarcinoma. Cells were cultured in PRMI 1640 medium supplemented with 10% FBS, penicillin (100 U/mL) and streptomycin (100 μg/mL) at 37° C. in a humidified incubator containing 5% CO2. Cells grown to 80-90% confluence were then washed with sterile phosphate-buffered saline (1×PBS pH 7.4) and trypsinization. The collected cells number was counted with a Hausser Scientific (Horsham, Pa.) Hemacytometer.
Imaging and biodistribution experiments were performed using NODSCID 1L2RγKO male mice. Mice were anesthetized by inhalation with 2% isoflurane in oxygen, and implanted subcutaneously with 1×10^7 LNCaP cells behind left shoulder. Mice were imaged or used in biodistribution studies when the tumor grew up to reach 5-8 mm in diameter during 5-6 weeks.
PET imaging experiments were conducted using Siemens Inveon micro PET/CT scanner. Each tumor bearing mouse was injected 6-8 MBq of F-18 labeled tracer through the tail vein under anesthesia (2% isoflurane in oxygen). The mice were allowed to recover and roam freely in their cage. After 50 min, the mice were sedated again with 2% isoflurane in oxygen inhalation and positioned in the scanner. A 10-min CT scan was conducted first for localization and attenuation correction after segmentation for reconstructing the PET images. Then, a 10-min static PET imaging was performed to determined uptake in tumor and other organs. The mice were kept warm by a heating pad during acquisition. For imaging studies acquired at 2 h post-injection (p.i.), the mice were placed in the micro PET/CT scanner at 110 min p.i. Then, the CT and PET acquisitions were conducted as described above.
For biodistribution studies, the mice were injected with the radiotracer as described above. At predetermined time points (1 or 2 h), the mice was anesthetized with 2% isoflurane inhalation, and euthanized by CO2 inhalation. Blood was withdrawn immediately from the heart, and the organs/tissues of interest were collected. The collected organs/tissues were weighed and counted using an automatic gamma counter. The uptake in each organ/tissue was normalized to the injected dose using a standard curve, and expressed as the percentage of the injected dose per gram of tissue (% ID/g).

[2] = test system: PSMA-expressing prostate cancer; details: clinical trials, PSMA-expressing prostate cancer patients; cited from earlier work

| SMILES | Biodistribution Adrenal glands ([1]; 1 h) [% ID/g] | Biodistribution Blood ([1]; 1 h) [% ID/g] | Biodistribution Bone ([1]; 1 h) [% ID/g] | Biodistribution Brain ([1]; 1 h) [% ID/g] | Biodistribution Fat ([1]; 1 h) [% ID/g] | Biodistribution Heart ([1]; 1 h) [% ID/g] | Biodistribution Intestine ([1]; 1 h) [% ID/g] | Biodistribution Kidneys ([1]; 1 h) [% ID/g] | Biodistribution Liver ([1]; 1 h) [% ID/g] | Biodistribution Lungs ([1]; 1 h) [% ID/g] | Biodistribution Muscle ([1]; 1 h) [% ID/g] | Biodistribution Pancreas ([1]; 1 h) [% ID/g] | Biodistribution Spleen ([1]; 1 h) [% ID/g] | Biodistribution Stomach ([1]; 1 h) [% ID/g] | Biodistribution Testes ([1]; 1 h) [% ID/g] | Biodistribution Tumor ([1]; 1 h) [% ID/g] | Tumor:Blood contrast ratio ([1]; 1 h) | Tumor:Muscle contrast ratio ([1]; 1 h) | Tumor:kidney contrast ratio ([1]; 1 h) | further results |
| --- | --- | --- | --- | --- | --- | --- | --- | --- | --- | --- | --- | --- | --- | --- | --- | --- | --- | --- | --- | --- |
| O=C(O)CC[C@H](NC(=O)N[C@@H](CCCCNC(=O)c1ccc(Cn2cc(C[n+]3ccc([B-](F)(F)[18F])cc3)nn2)nc1)C(=O)O)C(=O)O [^18F-PSMA PyrBF3] | 6.66 ± 2.33 | 0.74 ± 0.15 | 0.76 ± 0.57 | 0.05 ± 0.01 | 1.05 ± 0.49 | 0.34 ± 0.08 | 0.48 ± 0.22 | 164 ± 50.2 | 1.28 ± 0.18 | 1.67 ± 0.47 | 0.28 ± 0.07 | 0.68 ± 0.50 | 3.36 ± 1.08 | 0.15 ± 0.03 | 0.67 ± 0.27 | 6.26 ± 0.82 | 8.67 ± 1.74 | 23.5 ± 5.00 | 0.04 ± 0.02 |  |
| C[N+](C)(Cc1cn(Cc2ccc(C(=O)NCCCC[C@H](NC(=O)N[C@@H](CCC(=O)O)C(=O)O)C(=O)O)cn2)nn1)C[B-](F)(F)[18F] [^18F-HTK01130] | 1.46 ± 0.56 | 0.58 ± 0.09 | 0.22 ± 0.05 | 0.04 ± 0.01 | 0.39 ± 0.14 | 0.21 ± 0.05 | 0.31 ± 0.01 | 63.3 ± 13.5 | 1.26 ± 0.27 | 0.75 ± 0.10 | 0.20 ± 0.07 | 0.31 ± 0.11 | 0.95 ± 0.56 | 0.09 ± 0.03 | 0.30 ± 0.05 | 4.44 ± 1.11 | 7.60 ± 1.33 | 24.1 ± 8.79 | 0.07 ± 0.02 | Biodistribution Adrenal glands ([1]; 2 h): 1.08 ± 0.51 % ID/g; Biodistribution Blood ([1]; 2 h): 0.21 ± 0.10 % ID/g; Biodistribution Bone ([1]; 2 h): 0.20 ± 0.09 % ID/g; Biodistribution Brain ([1]; 2 h): 0.03 ± 0.01 % ID/g; Biodistribution Fat ([1]; 2 h): 0.32 ± 0.30 % ID/g; Biodistribution Heart ([1]; 2 h): 0.10 ± 0.04 % ID/g; Biodistribution Intestine ([1]; 2 h): 0.24 ± 0.11 % ID/g; Biodistribution Kidneys ([1]; 2 h): 48.2 ± 24.6 % ID/g; Biodistribution Liver ([1]; 2 h): 1.20 ± 0.30 % ID/g; Biodistribution Lungs ([1]; 2 h): 0.30 ± 0.10 % ID/g; Biodistribution Muscle ([1]; 2 h): 0.08 ± 0.03 % ID/g; Biodistribution Pancreas ([1]; 2 h): 0.20 ± 0.18 % ID/g; Biodistribution Spleen ([1]; 2 h): 0.39 ± 0.35 % ID/g; Biodistribution Stomach ([1]; 2 h): 0.05 ± 0.03 % ID/g; Biodistribution Testes ([1]; 2 h): 0.16 ± 0.10 % ID/g; Biodistribution Tumor ([1]; 2 h): 4.27 ± 0.65 % ID/g; Tumor:Blood contrast ratio ([1]; 2 h): 7.60 ± 1.33; Tumor:Muscle contrast ratio ([1]; 2 h): 24.1 ± 8.79; Tumor:kidney contrast ratio ([1]; 2 h): 0.07 ± 0.02 |
| O=C([O-])CN1CCN(CC(=O)[O-])CCN(CC(=O)NCC2CCC(C(=O)N[C@@H](Cc3ccc4ccccc4c3)C(=O)NCCCC[C@H](NC(=O)N[C@@H](CCC(=O)O)C(=O)O)C(=O)O)CC2)CCN(CC(=O)[O-])CC1.[177Lu+3] (stereo partly shown) [PSMA-617 radiolabeled with Lu-177] |  |  |  |  |  |  |  |  |  |  |  |  |  |  |  |  |  |  |  | positive response [2]: > 50% |

Further lines, with some results ahead:

| Biodistribution Adrenal glands ([1]; 1 h) [% ID/g] | Biodistribution Blood ([1]; 1 h) [% ID/g] | Biodistribution Bone ([1]; 1 h) [% ID/g] | Biodistribution Brain ([1]; 1 h) [% ID/g] | Biodistribution Fat ([1]; 1 h) [% ID/g] | Biodistribution Heart ([1]; 1 h) [% ID/g] | Biodistribution Intestine ([1]; 1 h) [% ID/g] | Biodistribution Kidneys ([1]; 1 h) [% ID/g] | Biodistribution Liver ([1]; 1 h) [% ID/g] | Biodistribution Lungs ([1]; 1 h) [% ID/g] | Biodistribution Muscle ([1]; 1 h) [% ID/g] | Biodistribution Pancreas ([1]; 1 h) [% ID/g] | Biodistribution Spleen ([1]; 1 h) [% ID/g] | Biodistribution Stomach ([1]; 1 h) [% ID/g] | Biodistribution Testes ([1]; 1 h) [% ID/g] | Biodistribution Tumor ([1]; 1 h) [% ID/g] | Tumor:Blood contrast ratio ([1]; 1 h) | Tumor:Muscle contrast ratio ([1]; 1 h) | Tumor:kidney contrast ratio ([1]; 1 h) | SMILES | further results |
| --- | --- | --- | --- | --- | --- | --- | --- | --- | --- | --- | --- | --- | --- | --- | --- | --- | --- | --- | --- | --- |
| 0.81 ± 0.25 | 0.13 ± 0.08 | 0.10 ± 0.07 | 0.01 ± 0.01 | 0.27 ± 0.14 | 0.07 ± 0.02 | 22.2 ± 2.79 | 29.9 ± 25.0 | 0.83 ± 0.34 | 0.40 ± 0.13 | 0.05 ± 0.01 | 0.13 ± 0.11 | 0.75 ± 0.36 | 0.21 ± 0.12 | 0.18 ± 0.05 | 5.09 ± 1.10 | 54.6 ± 38.5 | 117 ± 52.1 | 0.28 ± 0.22 | C[N+](C)(Cc1cn(CC(=O)NCCOCCOCCC(=O)N[C@@H](Cc2ccc3ccccc3c2)C(=O)NCCCC[C@H](NC(=O)N[C@@H](CCC(=O)O)C(=O)O)C(=O)O)nn1)C[B-](F)(F)[18F] [^18F-HTK01146] |  |
| 2.89 ± 1.94 | 0.89 ± 0.42 | 0.34 ± 0.14 | 0.04 ± 0.01 | 0.83 ± 0.33 | 0.31 ± 0.11 | 13.0 ± 4.61 | 73.9 ± 35.2 | 1.14 ± 0.48 | 1.21 ± 0.48 | 0.36 ± 0.18 | 0.30 ± 0.17 | 2.67 ± 0.98 | 0.37 ± 0.45 | 0.74 ± 0.55 | 14.0 ± 5.20 | 17.1 ± 5.40 | 49.7 ± 28.5 | 0.21 ± 0.08 | C[N+](C)(Cc1cn(CC(=O)NC[C@H]2CC[C@H](C(=O)N[C@@H](Cc3ccc4ccccc4c3)C(=O)NCCCC[C@H](NC(=O)N[C@@H](CCC(=O)O)C(=O)O)C(=O)O)CC2)nn1)C[B-](F)(F)[18F] [^18F-HTK01157] |  |
| 2.02 ± 0.56 | 1.45 ± 1.15 | 0.54 ± 0.14 | 0.03 ± 0.00 | 0.42 ± 0.30 | 0.25 ± 0.06 | 20.8 ± 4.79 | 83.5 ± 35.7 | 1.10 ± 0.28 | 1.06 ± 0.23 | 0.18 ± 0.03 | 0.26 ± 0.08 | 2.84 ± 1.51 | 0.98 ± 0.12 | 0.39 ± 0.13 | 23.1 ± 8.26 | 35.4 ± 27.6 | 145 ± 57.0 | 0.32 ± 0.11 | O=C(O)CC[C@H](NC(=O)N[C@@H](CCCCNC(=O)[C@H](Cc1ccc2ccccc2c1)NC(=O)[C@H]1CC[C@H](CNC(=O)Cn2cc(C[n+]3ccc([B-](F)(F)[18F])cc3)nn2)CC1)C(=O)O)C(=O)O [^18F-PSMA-617-PyrBF3] |  |
